Source: patent US20240230656A1, “Predicting Prognosis and Treatment Response of Breast Cancer Patients Using Expression and Cellular Localization of N-Myristoyltransferase” (Oncodrex Inc., priority 2021, published 2024)

Key:
[1] = tested on: NMT1; assay: MCF7 gene expression of NMT following insulin stimulation or rapamycin treatment (NMT1); format: cell-based; conditions: MCF7 cells
Source text: (§1) Example 9—MCF7 Gene Expression of NMT and WT1 Regulated Genes Following Insulin Stimulation
(§2) NMT1 was also shown to bind to regions of DNA containing BASP1 regulated growth genes. […] This supports our prediction that phosphorylation is the leading PI3K/AKT/mTOR mediated regulatory mechanism responsible for NMT1 modulation.

[2] = tested on: NMT2; assay: MCF7 gene expression of NMT following insulin stimulation or rapamycin treatment (NMT2); format: cell-based; conditions: MCF7 cells
Source text: as §1, §2

insulin
NMT1 expression following treatment [1]: little change | NMT2 expression following treatment [2]: little change
